Measured values taken from PubChem BioAssay (NCI).
“And” between values parts separate entries of the source, which are not always exact repeats. Identical values can stand only once.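 Step 1: Grow cells in 96-well plates. Step 2: Expose to compound for 48 hours at 5 concentrations. Step 3: Interpolate endpoints linearly; if unreached, use highest concentration. Here, GI50 denotes the concentration required for 50% inhibition of growth. TGI denotes the concentration required for complete inhibition of growth.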

What was measured:
Test in all cases: DTP human tumour cell line panel, 48 h
[1] = tested on: A549 NSCLC
[2] = tested on: HCT-15 colon
[3] = tested on: HOP-62 NSCLC
[4] = tested on: LOX IMVI melanoma
[5] = tested on: NCI-H226 lung
[6] = tested on: NCI-H23 lung
[7] = tested on: OVCAR-3 ovarian
[8] = tested on: OVCAR-5 ovarian
[9] = tested on: SF-268 CNS
[10] = tested on: SR leukemia

SMILES | GI50 [1] | TGI [1] | GI50 [2] | TGI [2] | GI50 [3] | TGI [3] | GI50 [4] | TGI [4] | GI50 [5] | TGI [5] | GI50 [6] | TGI [6] | GI50 [7] | TGI [7] | GI50 [8] | TGI [8] | GI50 [9] | TGI [9] | GI50 [10] | TGI [10]
CON(C)C(=O)N1N=C(c2cc(F)ccc2F)SC1(CCCN)c1ccccc1 (centres undefined) | 0.024 µM and < 0.01 µM | 17.1 µM and 18.2 µM | 0.0485 µM and < 0.01 µM | 15.9 µM and 17.6 µM | 0.0545 µM and < 0.01 µM | 18.4 µM and 15.7 µM | 0.024 µM and < 0.01 µM | 17.5 µM and 16.4 µM | 12 µM and 12.5 µM | 27.3 µM and 28.3 µM | 0.0936 µM and < 0.01 µM | 21.9 µM and 14.8 µM | 0.0298 µM and < 0.01 µM | 12.4 µM and 12.2 µM | 0.0576 µM and < 0.01 µM | 15.1 µM and 15.8 µM | 0.0217 µM and < 0.01 µM | 17.3 µM and 16 µM | < 0.01 µM | 12.4 µM and 12.6 µM
CSc1nc2cc(S(=O)(=O)N3CCCCC3)ccc2s1 |  | > 100 µM |  | > 100 µM |  | > 100 µM |  | > 100 µM |  | > 100 µM |  | > 100 µM |  | > 100 µM |  | > 100 µM |  | > 100 µM |  | > 100 µM
CC[C@H](C)[C@H]1O[C@]2(C=C[C@@H]1C)C[C@@H]1C[C@@H](C/C=C(\C)[C@@H](O[C@H]3C[C@H](OC)[C@@H](O[C@H]4C[C@H](OC)[C@@H](NC)[C@H](C)O4)[C@H](C)O3)[C@@H](C)/C=C/C=C3\CO[C@@H]4[C@H](O)C(C)=C[C@@H](C(=O)O1)[C@]34O)O2 | 2.01 µM | 6.38 µM | 1.78 µM | 4.46 µM | 1.75 µM | 4 µM | 1.68 µM | 3.13 µM | 4.26 µM | 16 µM | 2.73 µM | 8.34 µM | 3.44 µM | 11.8 µM | 3.41 µM | 14.9 µM | 3.9 µM | 16 µM | 1.49 µM | 4.17 µM
C/C(=N\Nc1ccc(Cl)cn1)c1ccccn1 | 0.364 µM | > 100 µM | 0.0658 µM | > 50.4 µM | 0.167 µM | > 42.1 µM | 0.113 µM | > 24.2 µM | 0.0939 µM | 2.65 µM | 0.0674 µM | > 100 µM |  | 14.9 µM | 0.225 µM | > 100 µM | 0.213 µM | > 73.2 µM | 0.0556 µM | > 40.9 µM
Cc1ccc2c3c(c(=O)[nH]c2c1)C1(C(C#N)=C(N)O3)c2cc(Br)ccc2-c2ccc(Br)cc21 | 2.01 µM | 4.52 µM | 2.23 µM | 5.54 µM | 1.85 µM | 4.19 µM | 1.68 µM | 3.25 µM | 1.9 µM | 4.6 µM | 2.11 µM | 4.62 µM | 2.11 µM | 4.76 µM | 2.02 µM | 4.75 µM | 2.03 µM | 5.08 µM | 2.36 µM | 14.5 µM
COC(=O)C12C3C4C1C1C2C3C41NC(=O)c1csc([C@@H](C[C@H](C(C)C)N(C)C(=O)[C@@H](NC(=O)[C@H]2CCCCN2C)C2CC2)OC(C)=O)n1 (some centres undefined) | 0.157 µM | > 33.3 µM | 0.138 µM | > 33.3 µM | 0.048 µM | > 33.3 µM | 0.00882 µM | > 33.3 µM | 0.395 µM | > 33.3 µM | 0.151 µM | > 33.3 µM | 0.0117 µM | 0.86 µM | 0.294 µM | > 33.3 µM | 0.0356 µM | > 33.3 µM | < 0.00333 µM | > 33.3 µM
